# How the values were obtained:
# Format in all cases: cell-based
# IRAK4 [1] = target: T1, IRAK4 (Homo sapiens, UniProt Q9NWZ3); assay: IRAK4 Degradation Assay (Karpas299, HTRF/TR-FRET); conditions: Karpas-299 cells
# T1 construct: endogenous in cells; host or cells: Karpas299
# T1 sequence (Q9NWZ3 1-460): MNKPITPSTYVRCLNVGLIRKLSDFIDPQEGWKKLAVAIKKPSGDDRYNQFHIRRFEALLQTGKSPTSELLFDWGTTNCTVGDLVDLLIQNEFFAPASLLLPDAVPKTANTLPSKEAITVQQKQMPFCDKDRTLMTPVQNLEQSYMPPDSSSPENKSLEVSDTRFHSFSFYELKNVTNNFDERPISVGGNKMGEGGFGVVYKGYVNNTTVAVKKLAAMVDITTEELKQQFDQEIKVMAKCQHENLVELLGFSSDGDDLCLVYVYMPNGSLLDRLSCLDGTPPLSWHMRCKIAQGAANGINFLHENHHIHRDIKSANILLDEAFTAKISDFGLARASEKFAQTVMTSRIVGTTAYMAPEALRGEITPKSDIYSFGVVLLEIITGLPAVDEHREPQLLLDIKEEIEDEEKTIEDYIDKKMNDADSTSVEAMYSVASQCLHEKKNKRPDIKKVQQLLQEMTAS
# In short: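 Karpas299 cells at 0.2 million per well were exposed to serially diluted compounds for 24 h or 5 h, then lysed. IRAK4 remaining in lysates was quantified by HTRF (665/620 nm) after overnight antibody incubation at room temperature. Percent degradation was fitted to a four-parameter curve to give IC50 (DC50).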
# [2] = system: TNF-α production in THP-1 cells; assay: TNF-α Production Assay in THP-1 Cells (LPS stimulated); conditions: Homo sapiens, THP-1, 24 h; for Emax: maximum inhibition, read-out: TNF-α (THP-1) 24 h IMax
# Description: THP-1 cells maintained in RPMI 1640 medium (Thermo Scientific) supplemented with 10% FBS (Thermo Scientific), 100 units/mL penicillin and 0.1 mg/mL streptomycin (Thermo Scientific) were seeded into 96-well plates at the density of 0.2 million cells per well and then treated with compounds for 24 h. Lipopolysaccharide was subsequently added at the final concentration of 1 μg/mL for 24 h. Culture supernatant was collected for measurement of TNF-α concentration by a TR-FRET-based method (Degorce, François, et al. Current chemical genomics. 2009, 3: 22) as described by the manufacturer manual (Cisbio). FRET signals were measured using a PHERAstar FSX reader (BMG Labtech).
# IRAK4 [3] = target: T1, IRAK4; assay: IRAK4 Degradation Assay with Human Serum (Karpas299, HTRF/TR-FRET); conditions: Karpas-299 in human serum, 24 hrs treatment; for DC50: read-out: IRAK4 degradtion with human serum assay DC50; for Dmax: read-out: IRAK4 degradtion with human serum assay Dmax (%)
# In short: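 Karpas299 cells in human AB serum (0.2 million/well) treated with serial compound dilutions for 24 h. After lysis, IRAK4 quantified by HTRF (overnight antibody incubation at room temperature, 665/620 nm read). Degradation percentage fitted to four-parameter curve to give DC50.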
# [4] = 24 h treatment, maximum percentage of degradation, read-out: IRAK4 in Karpas-299 (24 h) Dmax (%)
# [5] = 24 h treatment, read-out: IRAK4 in Karpas-299 (24 h) DC50
# [6] = 5 h treatment, maximum percentage of degradation, read-out: IRAK4 in Karpas-299 (5 h) Dmax (%)
# [7] = 5 h treatment, read-out: IRAK4 in Karpas-299 (5 h) DC50
Dmax (IRAK4 [1]; [4]) [%],DC50 (IRAK4 [1]; [5]) [nM],IC50 [2] [nM],DC50 (IRAK4 [3]) [nM],Dmax (IRAK4 [3]) [%],Dmax (IRAK4 [1]; [6]) [%],DC50 (IRAK4 [1]; [7]) [nM],"IRAK4 in Karpas-299 (24 h) Dmax (%) (IRAK4 [1]; 24 h treatment, maximum percentage of degradation)",IRAK4 degradtion with human serum assay Dmax (%) (IRAK4 [3]),SMILES,Emax [2] [%]
99,0.9,29,9.2,101,–,–,–,–,"COC[C@@H]1CN([C@H]2CC[C@H](n3cc4cc(NC(=O)c5ccc6cc(C#N)cnn56)c(C(C)(C)O)cc4n3)CC2)CCN1C(=O)C1CN(c2cc(F)c([C@H]3CCC(=O)NC3=O)c(F)c2)C1 [Example 186, 3-cyano-N-(2-((1S,4r)-4-((S)-4-(1-(4-((R)-2,6-dioxopiperidin-3-yl)-3,5-difluorophenyl)azetidine-3-carbonyl)-3-(methoxymethyl)piperazin-1-yl)cyclohexyl)-6-(2-hydroxypropan-2-yl)-2H-indazol-5-yl)pyrrolo[1,2-b]pyridazine-7-carboxamide]",89
97,0.4,20,5.8,102,–,–,–,–,"CC(C)(O)c1cc2nn([C@H]3CC[C@H](N4CCN(C(=O)CNc5cc(F)c([C@H]6CCC(=O)NC6=O)c(F)c5)CC4)CC3)cc2cc1NC(=O)c1ccc2cc(C#N)cnn12 [Example 193, 3-cyano-N-(2-((1R,4r)-4-(4-((4-((R)-2,6-dioxopiperidin-3-yl)-3,5-difluorophenyl)glycyl)piperazin-1-yl)cyclohexyl)-6-(2-hydroxypropan-2-yl)-2H-indazol-5-yl)pyrrolo[1,2-b]pyridazine-7-carboxamide]",58
99,0.7,11,12,96,97,3.1,–,–,"COC[C@H]1CN([C@H]2CC[C@H](n3cc4cc(NC(=O)c5ccc6cc(C#N)cnn56)c(C(C)(C)O)cc4n3)CC2)CCN1CC1CN(c2cc(F)c([C@H]3CCC(=O)NC3=O)c(F)c2)C1 [Example 367, 3-cyano-N-(2-((1R,4r)-4-((R)-4-((1-(4-((R)-2,6-dioxopiperidin-3-yl)-3,5-difluorophenyl)azetidin-3-yl)methyl)-3-(methoxymethyl)piperazin-1-yl)cyclohexyl)-6-(2-hydroxypropan-2-yl)-2H-indazol-5-yl)pyrrolo[1,2-b]pyridazine-7-carboxamide]",96
98,0.7,36,21,98,97,3.1,–,–,"CC(C)(O)c1cc2nn([C@H]3CC[C@H](N4CCN(C(=O)C5CN(c6cc(F)c(N7CCC(=O)NC7=O)c(F)c6)C5)CC4)CC3)cc2cc1NC(=O)c1ccc2cc(C#N)cnn12 [Example 105, 3-cyano-N-(2-((1r,4r)-4-(4-(1-(4-(2,4-dioxotetrahydropyrimidin-1(2H)-yl)-3,5-difluorophenyl)azetidine-3-carbonyl)piperazin-1-yl)cyclohexyl)-6-(2-hydroxypropan-2-yl)-2H-indazol-5-yl)pyrrolo[1,2-b]pyridazine-7-carboxamide]",78
98,2,39,6.7,98,95,1.2,–,–,COC[C@@H]1CN([C@H]2CC[C@H](n3cc4cc(NC(=O)c5ccc6cc(C#N)cnn56)c(C(C)(C)O)cc4n3)CC2)CCN1C1CCN(c2cc(F)c([C@H]3CCC(=O)NC3=O)c(F)c2)CC1 [Example 319],90
99,3.1,101,–,–,81,33,–,–,"COc1cc2nn([C@H]3CC[C@H](CN4CCN(C(=O)[C@@H]5CCN(c6ccc(N7CCC(=O)NC7=O)cc6)C5)CC4)CC3)cc2cc1NC(=O)c1cccn(C2CC2)c1=O [Example 33, 1-cyclopropyl-N-(2-((1R,4r)-4-((4-((R)-1-(4-(2,4-dioxotetrahydropyrimidin-1(2H)-yl)phenyl)pyrrolidine-3-carbonyl)piperazin-1-yl)methyl)cyclohexyl)-6-methoxy-2H-indazol-5-yl)-2-oxo-1,2-dihydropyridine-3-carboxamide]",53
96,1.3,53,–,–,–,–,–,–,"CC(C)(O)c1cc2nn([C@H]3CC[C@H](N4CCN(C(=O)C5CN(c6cc(F)c(N7CCC(=O)NC7=O)c(F)c6)C5)CC4)CC3)cc2cc1NC(=O)c1cccc(C(F)(F)F)n1 [Example 114, N-(2-((1r,4r)-4-(4-(1-(4-(2,4-dioxotetrahydropyrimidin-1(2H)-yl)-3,5-difluorophenyl)azetidine-3-carbonyl)piperazin-1-yl)cyclohexyl)-6-(2-hydroxypropan-2-yl)-2H-indazol-5-yl)-6-(trifluoromethyl)picolinamide]",78
97,1.6,120,–,–,96,12,–,–,"COc1cc2nn([C@H]3CC[C@H](N4CCN(C(=O)C5CN(c6cc(F)c(N7CCC(=O)NC7=O)c(F)c6)C5)CC4)CC3)cc2cc1NC(=O)c1cccc(C(F)(F)F)n1 [Example 176, N-(2-((1r,4r)-4-(4-(1-(4-(2,4-dioxotetrahydropyrimidin-1(2H)-yl)-3,5-difluorophenyl)azetidine-3-carbonyl)piperazin-1-yl)cyclohexyl)-6-methoxy-2H-indazol-5-yl)-6-(trifluoromethyl)picolinamide]",78
98,1.8,69,–,–,99,17,–,–,"[2H]C([2H])([2H])Oc1cc2nn([C@H]3CC[C@H](N4CCN(C(=O)C5CN(c6cc(F)c(N7CCC(=O)NC7=O)c(F)c6)C5)CC4)CC3)cc2cc1NC(=O)c1cccc(C(F)(F)F)n1 [Example 173, N-(2-((1r,4r)-4-(4-(1-(4-(2,4-dioxotetrahydropyrimidin-1(2H)-yl)-3,5-difluorophenyl)azetidine-3-carbonyl)piperazin-1-yl)cyclohexyl)-6-(methoxy-d3)-2H-indazol-5-yl)-6-(trifluoromethyl)picolinamide]",79
98,0.4,–,11,96,–,–,–,–,"CC(C)(O)c1cc2nn([C@H]3CC[C@H](N4CCN(C[C@H]5C[C@H](c6cc(F)c([C@H]7CCC(=O)NC7=O)c(F)c6)C5)CC4)CC3)cc2cc1NC(=O)c1ccc2cc(C#N)cnn12 [Example 382, 3-cyano-N-(2-((1R,4r)-4-(4-(((1R,3R)-3-(4-((R)-2,6-dioxopiperidin-3-yl)-3,5-difluorophenyl)cyclobutyl)methyl)piperazin-1-yl)cyclohexyl)-6-(2-hydroxypropan-2-yl)-2H-indazol-5-yl)pyrrolo[1,2-b]pyridazine-7-carboxamide]",–
–,5.5,–,12,–,–,–,95,95,"Cc1nc(C2CCC(=O)NC2=O)ccc1N1CC(N2CCN(C3CCC(n4cc5cc(NC(=O)c6ccc7cc(C#N)cnn67)c(C(C)(C)O)cc5n4)CC3)CC2)C1 (stereo not shown) [Example 426, 3-cyano-N-(2-((1r,4r)-4-(4-(1-(6-(2,6-dioxopiperidin-3-yl)-2-methylpyridin-3-yl)azetidin-3-yl)piperazin-1-yl)cyclohexyl)-6-(2-hydroxypropan-2-yl)-2H-indazol-5-yl)pyrrolo[1,2-b]pyridazine-7-carboxamide]",–
94,1.8,–,37,95,–,–,–,–,"CC(C)(O)c1cc2nn([C@H]3CC[C@H](N4CCN(C(=O)N5CCN(c6ccc(C7CCC(=O)NC7=O)cc6)CC5)CC4)CC3)cc2cc1NC(=O)c1ccc2cc(C#N)cnn12 (stereo partly shown) [Example 292, 3-cyano-N-(2-((1r,4r)-4-(4-(4-(4-(2,6-dioxopiperidin-3-yl)phenyl)piperazine-1-carbonyl)piperazin-1-yl)cyclohexyl)-6-(2-hydroxypropan-2-yl)-2H-indazol-5-yl)pyrrolo[1,2-b]pyridazine-7-carboxamide]",–

# Reference: patent US20250195513A1, “DEGRADATION OF IRAK4 BY CONJUGATION OF IRAK4 INHIBITORS WITH E3 LIGASE LIGAND AND METHODS OF USE” (BeiGene, Ltd., priority 2022, published 2025)
